From patent publication US20230060425A1, “FUSED BICYCLIC HETEROCYCLE DERIVATIVES AS PESTICIDES” (Bayer Aktiengesellschaft, priority 2019, published 2023) come the findings set out here.

Where two headings read alike, the source gives them in different places.

Common to all, as to format: in vivo
The test system of experiment [1] is Phaedon cochleariae. The experiment in a line: Phaedon cochleariae spray test. As to conditions: foliar, 168 h, application rate 100 g/ha, Chinese cabbage leaf discs, after 7 days, read-out: efficacy. The procedure, abridged:
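Chinese cabbage leaf discs sprayed with compound formulated in acetone/DMF and emulsifier-containing water, then infested with mustard beetle larvae after drying. Efficacy read after 7 days as % larvae killed.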

In experiment [2] the test system is Spodoptera frugiperda. Kind of experiment: Spodoptera frugiperda spray test. As to conditions: foliar, 168 h, application rate 100 g/ha, maize leaf discs, after 7 days, read-out: efficacy. The protocol:
Spodoptera frugiperda—Spray Test
(§1) Solvent: • 78.0 parts by weight of acetone • 1.5 parts by weight of dimethylformamide
(§2) Emulsifier: alkylaryl polyglycol ether
To produce further test concentrations, the formulation is diluted with emulsifier-containing water.
After 7 days, the efficacy in % is determined. 100% means that all the caterpillars have been killed; 0% means that no caterpillar has been killed.

The test system of experiment [3] is Myzus persicae. The experiment in a line: Myzus persicae oral test. As to conditions: 120 h, application rate 4 ppm, after 5 days, read-out: efficacy. The procedure, abridged: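 Aphid feeding test: compound dissolved in acetone, diluted with water and mixed with IPL41 insect medium plus sugar, offered through parafilm to a mixed population of green peach aphids. Mortality scored after 5 days as % efficacy (100% = all aphids dead, 0% = none dead).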

Experiment [4] deals with Myzus persicae. Kind of experiment: Myzus persicae spray test. The note with it: foliar, 120 h, application rate 100 g/ha, Chinese cabbage leaf discs, after 5 days, read-out: efficacy. In a few lines:
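Chinese cabbage leaf discs infested with all stages of Myzus persicae were sprayed with compound in acetone/DMF, diluted in water containing 1000 ppm emulsifier. Efficacy in % assessed after 5 days: 100% all aphids killed, 0% none killed.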

Another experiment deals with Ctenocephalides felis. Kind of experiment: Ctenocephalides felis oral test. The note with it: 48 h, application rate 100 ppm, in citrated cattle blood, after 2 days, read-out: efficacy (kill in %). The procedure, abridged: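 Adult unfed cat fleas (~20 per chamber) fed through parafilm membrane on citrated cattle blood containing compound (DMSO formulation diluted in blood to test concentration). Kill (%) scored after 2 days; 100% = all fleas dead, 0% = none.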

A further experiment deals with Lucilia cuprina. The experiment in a line: Lucilia cuprina test. The note with it: application rate 100 ppm; L1 larvae; after 2 days. On the procedure: (§3) Solvent: Dimethyl sulfoxide
To produce a suitable active compound formulation, 10 mg of active compound are mixed with 0.5 ml of dimethyl sulfoxide, and the concentrate is diluted with water to the desired concentration.
About 20 L1 larvae of the Australian sheep blowfly (Lucilia cuprina) are transferred into a test vessel containing minced horsemeat and the active compound formulation of the desired concentration.
After 2 days, the kill in % is determined. 100% means that all the larvae have been killed; 0% means that no larvae have been killed.

In the next experiment the test system is Boophilus microplus. Kind of experiment: Boophilus microplus injection test. The note with it: application rate 20 μg/animal, after 7 days, laying of fertile eggs. On the procedure:
Boophilus microplus—Injection Test
as §3
To produce a suitable active compound formulation, 10 mg of active compound are mixed with 0.5 ml of solvent and the concentrate is diluted to the desired concentration with solvent.
1 μl of the active compound solution is injected into the abdomen of 5 engorged adult female cattle ticks (Boophilus microplus). The animals are transferred into dishes and kept in a climate-controlled room.
Efficacy is assessed after 7 days by laying of fertile eggs. Eggs which are not visibly fertile are stored in a climate-controlled cabinet until the larvae hatch after about 42 days. An efficacy of 100% means that none of the ticks has laid any fertile eggs; 0% means that all the eggs are fertile.

Another experiment deals with Heliothis armigera. Kind of experiment: Heliothis armigera test (HELIAR S). As to conditions: Helicoverpa armigera, 6 dai, read-out: % Efficacy. The protocol:
Heliothis armigera Test (HELIAR S)
(§4) Solvent: 14 parts by weight of dimethylformamide
(§5) Emulsifier: 2 parts by weight of alkylaryl polyglycol ether
(§6) To produce a suitable active compound formulation, 1 part by weight of active compound is dissolved with the stated parts by weight of solvent and emulsifier and made up to the desired concentration with water. To produce further test concentrations, water is used for dilution. In the event that addition of ammonium salts or/and penetrants (rapeseed oil methyl ester) is required, these are each pipetted in at a concentration of 1000 ppm after the finished formulation solution has been diluted.
Cotton plants (Gossypium hirsutum) are sprayed with an active compound formulation of the desired concentration and, in each case after 12 and 19 days, populated with 5 caterpillars (L2) of the cotton bollworm (Heliothis armigera).
(§7) The kill is determined 6 days after the infection. 100% means that all the caterpillars have been killed and 0% means that none of the caterpillars have been killed.

The test system of experiment [5] is Phaedon cochleariae. The experiment in a line: Phaedon cochleariae test on cabbage plants (PHAECO S). The note with it: 6 dai, read-out: % Efficacy. On the procedure:
Phaedon cochleariae Test (PHAECO S)
as §4, §5, §6
Cabbage plants (Brassica oleracea var. sabauda) are sprayed with an active compound formulation of the desired concentration and populated with 10 L2 larvae of the mustard beetle (Phaedon cochleariae).
After the desired time, the kill in % is determined. 100% means that all the larvae have been killed and 0% means that none of the larvae have been killed.

For experiment [6], the system named is Myzus persicae. The experiment in a line: Myzus persicae spray test (MYZUPE), comparative. As to conditions: 120 h, 5 dat, read-out: % Efficacy. The protocol:
Myzus persicae—Spray Test (MYZUPE)
as §1, §2
(§8) To produce a suitable active compound preparation, 1 part by weight of active compound is dissolved using the stated parts by weight of solvent and made up with water containing an emulsifier concentration of 1000 ppm until the desired concentration is attained. To produce further test concentrations, the formulation is diluted with emulsifier-containing water.
Discs of Chinese cabbage leaves (Brassica pekinensis) infested by all stages of the green peach aphid (Myzus persicae) are sprayed with an active compound preparation of the desired concentration.
(§9) After the desired period of time, the efficacy in % is determined. 100% means that all the aphids have been killed; 0% means that no aphids have been killed.

For experiment [7], the system named is Spodoptera frugiperda. The experiment in a line: Spodoptera frugiperda spray test (SPODFR), comparative. The note with it: 168 h, 0.8 g of ai/ha, 7 dat, read-out: % Efficacy. The protocol: Spodoptera frugiperda—Spray Test (SPODFR)
as §1, §2, §8
Leaf discs of maize (Zea mays) are sprayed with an active compound formulation of the desired concentration and, after drying, populated with caterpillars of the armyworm (Spodoptera frugiperda).
After the desired period of time, the efficacy in % is determined. 100% means that all the caterpillars have been killed; 0% means that no caterpillar has been killed.

In experiment [8] the test system is Spodoptera frugiperda. The experiment in a line: Spodoptera frugiperda test on maize plants (SPODFR S). As to conditions: 6 dai, read-out: % Efficacy. On the procedure: Spodoptera frugiperda Test (SPODFR S)
as §4, §5, §6
Maize plants (Zea mays) are sprayed with an active compound formulation of the desired concentration and, in each case after 5, 12 and 19 days, populated with 5 caterpillars (L2) of the fall armyworm (Spodoptera frugiperda).
as §7

In experiment [9] the test system is Myzus persicae. Kind of experiment: Myzus persicae spray test on bell pepper plants (MYZUPE S). As to conditions: 144 h, 6 dat, read-out: % Efficacy. On the procedure: Myzus persicae—Spray Test (MYZUPE S)
as §4, §2
(§10) To produce a suitable active compound preparation, 1 part by weight of active compound is dissolved using the stated parts by weight of solvent and made up with water containing an emulsifier concentration of 1000 ppm until the desired concentration is attained. To produce further test concentrations, the formulation is diluted with emulsifier-containing water. If the addition of ammonium salts or/and penetrants is required, these are each added in a concentration of 1000 ppm to the formulation solution.
Bell pepper plants (Capsicum annuum) severely infested with the green peach aphid (Myzus persicae) are treated by spraying with the active compound formulation in the desired concentration.
After the desired time, the kill in % is determined. 100% means that all the animals have been killed; 0% means that no animals have been killed.

Another experiment deals with Aphis gossypii. Kind of experiment: Aphis gossypii spray test (APHIGO S). The note with it: 144 h, 6 dat, read-out: % Efficacy. The protocol: Aphis gossypii—Spray Test (APHIGO S)
as §4, §2, §10
Cotton plants (Gossypium hirsutum) heavily infested by the cotton aphid (Aphis gossypii) are sprayed with an active compound formulation of the desired concentration.
After the desired time, the kill in % is determined. 100% means that all the aphids have been killed; 0% means that no aphids have been killed.

The subject of the next experiment is Plutella xylostella. The experiment in a line: Plutella xylostella test (PLUTMA S). As to conditions: 456 h, infection 19 dat, 6 dai, read-out: % Efficacy. On the procedure:
Plutella xylostella Test (PLUTMA S)
as §4, §5, §6
Cabbage plants (Brassica oleracea var. sabauda) are sprayed with an active compound formulation of the desired concentration and, after 19 days, populated with 10 caterpillars (L2 larvae) of the diamond back moth (Plutella xylostella).
as §7

Experiment [10] concerns Myzus persicae. The experiment in a line: Myzus persicae drench test (MYZUPE D). The note with it: soil, 240 h, 10 dat, read-out: % Efficacy. The protocol: Myzus persicae—Drench Test (MYZUPE D)
Solvent: 7 parts by weight of dimethylformamide
Emulsifier: 2 part by weight of alkylaryl polyglycol ether
To produce a suitable active compound preparation, 1 part by weight of active compound is mixed with the specified amounts of solvent and emulsifier, and the concentrate is diluted with water to the desired concentration, it being necessary to include the volume of soil which is drenched in the calculation. It should be ensured that a concentration of 40 ppm of emulsifier in the soil is not exceeded. To produce further test concentrations, water is used for dilution.
Savoy cabbage (Brassica oleracea) in pots with soil and infested by all stages of the green peach aphid (Myzus persicae) is watered with an active compound preparation of the desired concentration.
as §9

Regarding `CCS(=O)(=O)c1c(-c2nc3cc(C(F)(F)F)cnc3n2C)ncc2cc(Cl)ccc12` [Example I-010], the pest or weed control at 100 g/ha in the experiment with Phaedon cochleariae [1], in the experiment with Spodoptera frugiperda [2] and in the experiment on Myzus persicae [4] was 100% each time. The pest or weed control at 4 ppm in the experiment with Myzus persicae [3] came out at 100%. Besides, the pest or weed control at 100 ppm in the experiment with Ctenocephalides felis was 100%. Further, the “efficacy (kill in %)” value in the experiment on Lucilia cuprina came to 100%. This compound also showed an efficacy in the experiment on Boophilus microplus of 80%.

`CCS(=O)(=O)c1c(-c2nc3cc(C(F)(F)F)cnc3n2C)ncc2cc(C(F)(F)F)ccc12` [Example I-51, reference compound]: the Emax at 0.16 ppm amounted to 40% with Heliothis armigera (288 h, infection 12 dat); 20% in the experiment on Heliothis armigera (456 h, infection 19 dat); 10% with Phaedon cochleariae [5] (120 h, infection 5 dat); 0% in the experiment on Phaedon cochleariae [5] (288 h, infection 12 dat); 20% in the experiment with Spodoptera frugiperda [8] (120 h, infection 5 dat); 10% in the experiment on Spodoptera frugiperda [8] (288 h, infection 12 dat). The Emax at 0.16 ppm was found to be 30% in the experiment with Spodoptera frugiperda [8] (456 h, infection 19 dat) and 50% in the experiment with Plutella xylostella. Also, the Emax at 0.8 ppm in the experiment on Phaedon cochleariae [5] (288 h, 0.8 ppm, infection 12 dat) came to 40%; in the experiment with Spodoptera frugiperda [8] (288 h, infection 12 dat), 80%; in the experiment with Spodoptera frugiperda [8] (456 h, infection 19 dat) it was 60%; with Myzus persicae [9] (0.8 ppm) it was 0%. Moreover, the Emax at 4 g/ha in the experiment on Myzus persicae [6] (4 g of ai/ha) was determined as 0%. Moreover, the Emax at 20 g/ha in the experiment with Myzus persicae [6] (20 g of ai/ha) came out at 0%. Further, the Emax at 0.8 g/ha in the experiment on Spodoptera frugiperda [7] is 67%. The Emax at 4 ppm with Myzus persicae [9] (4 ppm) was determined as 70%; in the experiment on Aphis gossypii it was 20%; with Myzus persicae [10], 0%.
